The values that follow come from patent publication EP0065513B1, “ANTIMYCOTIC SYNERGISTIC PHARMACEUTICAL COMPOSITIONS AND PROCESS FOR THE PREPARATION THEREOF” (CHINOIN Gyogyszer és Vegyészeti Termékek Gyára RT., priority 1980, dated 1982).

One test deals with Candida albicans. Put plainly: In vitro growth inhibition test in liquid nutrient medium. Format: cell-based. Here is the method: (§1) Candida albicans and Trichomonas vaginalis strains are cultured in a liquid nutrient medium. Incubation is carried out at 37°C for 48 hours. Each nutrient medium (10 ml) is inoculated with 1000 germs per ml. The number of germs is determined in a Burker chamber. Dilution series are prepared from the stock inoculum by using a physiological sodium chloride solution. To the mixture of the nutrient medium and 0.5 ml a physiological sodium chloride solution 2-methyl-1,4-naphthoquinone, nystatin and mixtures thereof are added.
(§2) The minimal inhibitory concentration of nystatin is determined in the manner disclosed above.
(§3) 1.25 mg/10 ml of 2-methyl-1,4-naphthoquinone is added to an amount of nystatin being the one fiftieth (1/50) part of the minimal inhibitory concentration. Complete inhibition of the growth of Candida albicans and Trichomonas vaginalis was observed.

For the next test, the system named is Trichomonas vaginalis. The test is described as above. Format: cell-based. The procedure: as §1, §2, §3
Test [1] has as its system vulvovaginitis candidomycetica. Put plainly: In vivo test: treatment of patients with suppositories. Particulars: patients with vulvovaginitis candidomycetica treated with suppositories; number of patients 35. The procedure:
Patients suffering of vulvovaginitis candidomycetica are treated with suppositories according to Example 1. As control suppositories containing no 2-methyl-1,4-naphthoquinone-sodium sulfite adduct but nystatin only are used. Number of patients 35.

Where [2] appears, read: concentration smaller than 5 mg/10 ml.
[3] abbreviates: liquid nutrient medium 10 ml, 1000 germs per ml, 37°C, 48 hours.

Take `CC1=CC(=O)c2ccccc2C1=O` [2-methyl-1,4-naphthoquinone]: the “activity at a smaller concentration than the minimal inhibitory concentration” value with Candida albicans (setting [2]) and in the test on Trichomonas vaginalis (setting [2]) was “completely inactive” each time. Further, the minimal inhibitory concentration with Candida albicans (setting [3]) and with Trichomonas vaginalis (setting [3]) was 5 mg/10 ml each time.

For the compound `C[C@@H]1[C@H](O)[C@@H](C)/C=C/C=C/CC/C=C/C=C/C=C/C=C/C(O[C@H]2O[C@H](C)[C@@H](O)[C@H](N)[C@@H]2O)CC2O[C@](O)(CC(O)C(O)CCC(O)CC(O)CC(O)CC(=O)O[C@H]1C)CC(O)C2C(=O)O` (some centres unmarked) [Nystatin], the “Recovery, in % of the cases” value in test [1] is 66%.
